Data from patent US10227323B2, “Glucosylceramide synthase inhibitors for the treatment of diseases” (BIOMARIN PHARMACEUTICAL INC., priority 2013, dated 2019).

target: T1, GCS (Canis lupus familiaris, UniProt A0A8I3MXG6); test: Assay 1: GCS Enzymatic Assay (MDCK cell lysate, C6-NBD-Ceramide, LC/MS); format: biochemical, canine; conditions: Table 2; data marked by *
T1 sequence (A0A8I3MXG6 1-394): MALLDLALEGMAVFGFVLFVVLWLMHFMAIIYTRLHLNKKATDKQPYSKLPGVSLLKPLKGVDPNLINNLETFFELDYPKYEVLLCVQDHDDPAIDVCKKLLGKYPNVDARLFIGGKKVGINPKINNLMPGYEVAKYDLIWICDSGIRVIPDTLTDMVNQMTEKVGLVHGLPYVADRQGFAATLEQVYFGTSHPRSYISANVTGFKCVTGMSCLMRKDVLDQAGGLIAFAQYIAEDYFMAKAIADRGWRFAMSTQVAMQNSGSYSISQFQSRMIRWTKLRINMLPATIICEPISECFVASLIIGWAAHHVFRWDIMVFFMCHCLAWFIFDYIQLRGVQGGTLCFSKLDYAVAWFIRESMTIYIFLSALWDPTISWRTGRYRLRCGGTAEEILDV
Method in brief: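 LC/MS/MS measurement of glucosylceramide and NBD-ceramide after a 1 h, 37 °C reaction with 100 μM UDP-glucose and 10 μM C6-NBD-ceramide gave IC50s or percent inhibition.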

Row | Structure (SMILES) | % inhibition generated from Assay 1
1 | CC1CN(C[C@@H](NC(=O)C(F)(F)CCc2ccc3cc(F)ccc3c2)[C@H](O)c2ccc3c(c2)OCCO3)C1 [Compound 96, N-((1R,2R)-1-(2,3-dihydrobenzo[b][1,4]dioxin-6-yl)-1-hydroxy-3-(3-methylazetidin-1-yl)propan-2-yl)-2,2-difluoro-4-(6-fluoronaphthalen-2-yl)butanamide] | A* (the compound had a % inhibition of a percent inhibition of greater than or equal to about 50%)
2 | CC(C)Oc1ccc([C@@H](O)[C@@H](CN2CCCC2)NC(=O)C(F)(F)CCc2ccc3cc(F)ccc3c2)cn1 [Compound 97, 2,2-difluoro-4-(6-fluoronaphthalen-2-yl)-N-((1R,2R)-1-hydroxy-1-(6-isopropoxypyridin-3-yl)-3-(pyrrolidin-1-yl)propan-2-yl)butanamide] | A* (the compound had a % inhibition of a percent inhibition of greater than or equal to about 50%)
3 | CC1CN(C[C@@H](NC(=O)C(=O)c2cc3cc(Cl)ccc3o2)[C@H](O)c2ccc3c(c2)OCCO3)C1 [Compound 100, 2-(5-chlorobenzofuran-2-yl)-N-((1R,2R)-1-(2,3-dihydrobenzo[b][1,4]dioxin-6-yl)-1-hydroxy-3-(3-methylazetidin-1-yl)propan-2-yl)-2-oxoacetamide] | B* (the compound had a % inhibition of greater than or equal to about 3% but less than about 50%)
4 | CC(C)Oc1cc([C@@H](O)[C@@H](CN2CCCC2)NC(=O)C(F)(F)CCc2ccc3cc(F)ccc3c2)ccn1 [Compound 114, 2,2-difluoro-4-(6-fluoronaphthalen-2-yl)-N-((1R,2R)-1-hydroxy-1-(2-isopropoxypyridin-4-yl)-3-(pyrrolidin-1-yl)propan-2-yl)butanamide] | A* (the compound had a % inhibition of a percent inhibition of greater than or equal to about 50%)

same assay, conditions: Table 2; data without asterisk; read-out: IC50 (nM) generated from Assay 1

Row | Structure (SMILES) | IC50 [nM]
5 | O=C(N[C@H](CN1CCCC1)[C@H](O)c1cc(F)c2c(c1)OCCO2)C(F)(F)C1Cc2ccc(Cl)cc2C1 (stereo partly drawn) [Compound 93, 2-(5-chloro-2,3-dihydro-1H-inden-2-yl)-2,2-difluoro-N-((1R,2R)-1-(8-fluoro-2,3-dihydrobenzo[b][1,4]dioxin-6-yl)-1-hydroxy-3-(pyrrolidin-1-yl)propan-2-yl)acetamide] | < 50
6 | O=C(N[C@H](CN1CCCC1)[C@H](O)c1cc(F)c2c(c1)OCCO2)C(=O)c1cc2cc(Cl)ccc2o1 [Compound 95, 2-(5-chlorobenzofuran-2-yl)-N-((1R,2R)-1-(8-fluoro-2,3-dihydrobenzo[b][1,4]dioxin-6-yl)-1-hydroxy-3-(pyrrolidin-1-yl)propan-2-yl)-2-oxoacetamide] | < 50
7 | O=C(N[C@H](CN1CCC1)[C@H](O)c1cc(F)c2c(c1)OCCO2)C(=NO)c1cc2cc(Cl)ccc2o1 [Compound 98, N-((1R,2R)-3-(azetidin-1-yl)-1-(8-fluoro-2,3-dihydrobenzo[b][1,4]dioxin-6-yl)-1-hydroxypropan-2-yl)-2-(5-chlorobenzofuran-2-yl)-2-(hydroxyimino)acetamide] | < 50
8 | O=C(N[C@H](CN1CCCC1)[C@H](O)c1ccc(OC2CC2)nc1)C(F)(F)c1cc2cc(Cl)ccc2o1 [Compound 99, 2-(5-chlorobenzofuran-2-yl)-N-((1R,2R)-1-(6-cyclopropoxypyridin-3-yl)-1-hydroxy-3-(pyrrolidin-1-yl)propan-2-yl)-2,2-difluoroacetamide] | < 50
9 | O=C(N[C@H](CN1CCCC1)[C@H](O)c1ccc(OC2CC2)nc1)C(F)(F)CCc1ccc2cc(F)ccc2c1 [Compound 101, N-((1R,2R)-1-(6-cyclopropoxypyridin-3-yl)-1-hydroxy-3-(pyrrolidin-1-yl)propan-2-yl)-2,2-difluoro-4-(6-fluoronaphthalen-2-yl)butanamide] | < 50
10 | CC1CN(C[C@@H](NC(=O)/C(=N/O)c2cc3cc(Cl)ccc3o2)[C@H](O)c2ccc3c(c2)OCCO3)C1 [Compound 102, (E)-2-(5-chlorobenzofuran-2-yl)-N-((1R,2R)-1-(2,3-dihydrobenzo[b][1,4]dioxin-6-yl)-1-hydroxy-3-(3-methylazetidin-1-yl)propan-2-yl)-2-(hydroxyimino)acetamide] | < 50
11 | O=C(N[C@H](CN1CCCC1)[C@H](O)c1cc(F)c2c(c1)OCCO2)/C(=N/O)c1cc2cc(Cl)ccc2o1 [Compound 104, (E)-2-(5-chlorobenzofuran-2-yl)-N-((1R,2R)-1-(8-fluoro-2,3-dihydrobenzo[b][1,4]dioxin-6-yl)-1-hydroxy-3-(pyrrolidin-1-yl)propan-2-yl)-2-(hydroxyimino)acetamide] | < 50
12 | O=C(N[C@H](CN1CCCC1)[C@H](O)c1ccc2c(c1)OCCO2)/C(CCc1ccc2cc(F)ccc2c1)=N/O [Compound 106, (E)-N-((1R,2R)-1-(2,3-dihydrobenzo[b][1,4]dioxin-6-yl)-1-hydroxy-3-(pyrrolidin-1-yl)propan-2-yl)-4-(6-fluoronaphthalen-2-yl)-2-(hydroxyimino)butanamide] | < 50
13 | CC(C)Oc1ccc([C@@H](O)[C@@H](CN2CCCC2)NC(=O)C(F)(F)CCc2ccc3ccccc3c2)cn1 [Compound 107, 2,2-difluoro-N-((1R,2R)-1-hydroxy-1-(6-isopropoxypyridin-3-yl)-3-(pyrrolidin-1-yl)propan-2-yl)-4-(naphthalen-2-yl)butanamide] | < 50
14 | O=C(N[C@H](CN1CCCC1)[C@H](O)c1ccc(OC2CCOCC2)c(Cl)c1)C(F)(F)CCc1ccc2ccccc2c1 [Compound 110, N-((1R,2R)-1-(3-chloro-4-((tetrahydro-2H-pyran-4-yl)oxy)phenyl)-1-hydroxy-3-(pyrrolidin-1-yl)propan-2-yl)-2,2-difluoro-4-(naphthalen-2-yl)butanamide] | < 50
15 | O=C(CCc1ccc2cc(F)ccc2c1)C(=O)N[C@H](CN1CCCC1)[C@H](O)c1cc(F)c2c(c1)OCCO2 [Compound 111, N-((1R,2R)-1-(8-fluoro-2,3-dihydrobenzo[b][1,4]dioxin-6-yl)-1-hydroxy-3-(pyrrolidin-1-yl)propan-2-yl)-4-(6-fluoronaphthalen-2-yl)-2-oxobutanamide] | < 50
16 | O=C(N[C@H](CN1CCCC1)[C@H](O)c1ccc(OC2CCOCC2)c(Cl)c1)C(F)(F)C1Cc2ccc(Cl)cc2C1 (stereo partly drawn) [Compound 116, 2-(5-chloro-2,3-dihydro-1H-inden-2-yl)-N-((1R,2R)-1-(3-chloro-4-((tetrahydro-2H-pyran-4-yl)oxy)phenyl)-1-hydroxy-3-(pyrrolidin-1-yl)propan-2-yl)-2,2-difluoroacetamide] | < 50

Second part, the compound after the results:

Row | IC50 [nM] | Structure (SMILES)
17 | < 50 | O=C(N[C@H](CN1CCC1)[C@H](O)c1cc(F)c2c(c1)OCCO2)C(F)(F)C1Cc2ccc(Cl)cc2C1 (stereo partly drawn) [Compound 92, N-((1R,2R)-3-(azetidin-1-yl)-1-(8-fluoro-2,3-dihydrobenzo[b][1,4]dioxin-6-yl)-1-hydroxypropan-2-yl)-2-(5-chloro-2,3-dihydro-1H-inden-2-yl)-2,2-difluoroacetamide]
18 | < 50 | CC(C)Oc1ccc([C@@H](O)[C@@H](CN2CCCC2)NC(=O)C(F)(F)c2cc3cc(Cl)ccc3o2)cc1Cl [Compound 94, N-((1R,2R)-1-(3-chloro-4-isopropoxyphenyl)-1-hydroxy-3-(pyrrolidin-1-yl)propan-2-yl)-2-(5-chlorobenzofuran-2-yl)-2,2-difluoroacetamide]
19 | < 50 | O=C(N[C@H](CN1CCCC1)[C@H](O)c1ccc(OC2CCOCC2)c(Cl)c1)C(F)(F)c1cc2cc(Cl)ccc2o1 [Compound 105, N-((1R,2R)-1-(3-chloro-4-((tetrahydro-2H-pyran-4-yl)oxy)phenyl)-1-hydroxy-3-(pyrrolidin-1-yl)propan-2-yl)-2-(5-chlorobenzofuran-2-yl)-2,2-difluoroacetamide]
20 | 50 to 5000 | O=C(N[C@H](CN1CCCC1)[C@H](O)c1ccc(OCC(F)(F)F)nc1)C(F)(F)CCc1ccc2ccccc2c1 [Compound 108, 2,2-difluoro-N-((1R,2R)-1-hydroxy-3-(pyrrolidin-1-yl)-1-(6-(2,2,2-trifluoroethoxy)pyridin-3-yl)propan-2-yl)-4-(naphthalen-2-yl)butanamide]
21 | < 50 | O=C(N[C@H](CN1CCCC1)[C@H](O)c1cc(F)c2c(c1)OCCO2)C(F)(F)CCc1ccc2ccccc2c1 [Compound 109, 2,2-difluoro-N-((1R,2R)-1-(8-fluoro-2,3-dihydrobenzo[b][1,4]dioxin-6-yl)-1-hydroxy-3-(pyrrolidin-1-yl)propan-2-yl)-4-(naphthalen-2-yl)butanamide]
22 | < 50 | O=C(N[C@H](CN1CCCC1)[C@H](O)c1ccc(OC2CC2)c(Cl)c1)/C(CCc1ccc2cc(F)ccc2c1)=N/O [Compound 112, (E)-N-((1R,2R)-1-(3-chloro-4-cyclopropoxyphenyl)-1-hydroxy-3-(pyrrolidin-1-yl)propan-2-yl)-4-(6-fluoronaphthalen-2-yl)-2-(hydroxyimino)butanamide]
23 | < 50 | O=C(N[C@H](CN1CCCC1)[C@H](O)c1cc(F)c2c(c1)OCCO2)/C(CCc1ccc2cc(F)ccc2c1)=N/O [Compound 115, (E)-N-((1R,2R)-1-(8-fluoro-2,3-dihydrobenzo[b][1,4]dioxin-6-yl)-1-hydroxy-3-(pyrrolidin-1-yl)propan-2-yl)-4-(6-fluoronaphthalen-2-yl)-2-(hydroxyimino)butanamide]
24 | 50 to 5000 | O=C(N[C@H](CN1CCC1)[C@H](O)c1cc(F)c2c(c1)OCCO2)/C(CCc1ccc2cc(F)ccc2c1)=N/O [Compound 118, (E)-N-((1R,2R)-3-(azetidin-1-yl)-1-(8-fluoro-2,3-dihydrobenzo[b][1,4]dioxin-6-yl)-1-hydroxypropan-2-yl)-4-(6-fluoronaphthalen-2-yl)-2-(hydroxyimino)butanamide]
